Results on eight molecules are retold here after US20030069295A1, “Use of histamine H3 receptor inverse agonists for the control of appetite and treatment of obesity” (Gliatech, Inc., priority 2001, published 2003).

The target in one assay is T1, Histamine H3 receptor (Rattus norvegicus, UniProt Q9QYN8).
T1 construct: The cerebral cortical tissues were harvested and frozen on dry ice; from tissue; host or cells: cerebral cortex membranes of male Sprague-Dawley rats
In words: Histamine H3 receptor binding analysis, [3H]-Nα-methylhistamine competition in rat cerebral cortical membranes, with and without GTPγS. The conditions noted are these: for Ki Ratio (−/+): Ki without GTPγS / Ki with GTPγS; for remaining activity at 30 pM: 0.03 nM of compound; for remaining activity at 0.0001 µM: 0.1 nM of compound; for remaining activity at 0.3 µM: 300 nM of compound; for binding to GTPγS-treated cortical membrane preparation compared with non-treated preparation: result in words; for remaining activity at 10 µM: read-out: percent of [3H]-Nα-methylhistamine bound (mean), 10000 nM of compound.

For a further assay, the target named is T2, H3 receptor (Rattus norvegicus, UniProt Q9QYN8).
T2 construct: ½-maximal H3 receptor occupancy in the brain following intraperitoneal administration; from tissue; host or cells: brain of dosed animals
T2 sequence (Q9QYN8 whole entry): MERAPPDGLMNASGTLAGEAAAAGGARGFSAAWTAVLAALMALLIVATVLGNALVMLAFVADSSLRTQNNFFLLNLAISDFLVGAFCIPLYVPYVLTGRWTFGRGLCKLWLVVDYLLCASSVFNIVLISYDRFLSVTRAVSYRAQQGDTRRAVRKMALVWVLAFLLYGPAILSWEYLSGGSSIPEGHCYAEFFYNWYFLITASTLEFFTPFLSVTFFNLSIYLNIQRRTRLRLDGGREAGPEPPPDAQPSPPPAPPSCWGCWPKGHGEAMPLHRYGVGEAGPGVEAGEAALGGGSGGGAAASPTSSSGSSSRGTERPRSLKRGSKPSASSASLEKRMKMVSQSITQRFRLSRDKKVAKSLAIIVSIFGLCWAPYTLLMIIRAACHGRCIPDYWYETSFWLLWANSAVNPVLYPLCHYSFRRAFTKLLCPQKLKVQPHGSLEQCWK
In words: Ex vivo binding: H3 receptor occupancy in the brain following intraperitoneal administration. The text has this:
(§1) The percent reduction in food intake by rats two hours after intraperitoneal administration of each compound is shown in Table 5. […] In Table 5, * indicates a significant decrease in food intake compared to the vehicle-treated rats (t-test, p<0.05). The ex vivo binding values in Table 5 represent the drug dose required to obtain ½-maximal H3 receptor occupancy in the brain following intraperitoneal administration. The dose values shown in Table 5 represent the dosage of drug utilized during the food intake studies. In all cases, the tested dose exceeded the amount needed to obtain ½-maximal H3 receptor occupancy in the brain.

Another assay concerns Sprague-Dawley rats. In words: Food intake study in Sprague-Dawley rats. Format: in vivo, rat. The conditions noted are these: two hours after intraperitoneal administration; result in words. The method, then:
The compounds summarized in Table 3 were examined for their ability to suppress food consumption by adult Sprague-Dawley rats. Male Sprague Dawley rats were purchased from Harlan Laboratories of Indianapolis, Ind. Rats were housed one per cage and maintained on a 12 hour light/dark schedule (lights-out at 12:30 p.m.) with ad libitum access to powdered Teklad Mouse/Rat Diet 7012 (available from Harlan Laboratories of Indianapolis, Ind.) and water. Rats were acclimated to laboratory conditions and food for 1 to 2 weeks prior to initiating food intake studies. On the day of experiments, test compounds were solubilized or suspended in vehicle/carrier and administered to rats (i.p. or p.o.) 30 to 60 minutes prior to the onset of the dark cycle. Food intake was determined at 1, 2, 4, and 24 hours following the onset of the dark cycle. Alternatively, rats were fasted (water provided) for 24 hours prior to evaluating the effects of compounds on food intake. For these studies, compounds or vehicle/carrier were administered and rats were placed in standard small animal metabolism chambers with ad ibitum access to powdered Teklad Mouse/Rat Diet 7012 and water. Food intake was determined at 2 and 4 hours following the onset of feeding.
Data is cumulative food intake in grams, mean±sem. In the table, * indicates a significant decrease in food intake compared to the vehicle-treated rats (t-test, p<0.05).
as §1

[1] abbreviates: GTPγS-treated receptor preparation (G-protein uncoupled), read-out: Ki (+) GTPγS.
Setting [2] is: untreated receptor preparation (mixture of coupled and uncoupled H3 receptors), read-out: Ki (−) GTPγS.
Setting [3] is: Tris-GTPγS, read-out: percent of [3H]-Nα-methylhistamine bound (mean).
Setting [4] is: Tris, read-out: percent of [3H]-Nα-methylhistamine bound (mean).

Where two headings read alike, the source gives them in different places.

T1 sequence (Q9QYN8 whole entry): as above
Procedure for Histamine H3 receptor: A histamine H3 receptor binding analysis to determine the affinity of various imidazole derivatives for G-protein uncoupled receptors was performed as follows. […] Animals were acclimated to laboratory conditions for a minimum of one week prior to tissue harvesting.
Animals were anesthetized by NO2 inhalation and euthanized by rapid decapitation. The cerebral cortical tissues were harvested and frozen on dry ice. Rat corticies were mechanically homogenized using a Tissue Tearer in 25 mM Tris buffer (pH 7.5 at 4° C.) containing: EDTA (10 mM), phenylmethylsulfonyl fluoride (0.1 mM), chymostatin and leupeptin (each 0.2 mg/50 mL). The homogenate was centrifuged in a Sorvall centrifuge at 40,000×g for 30 minutes. The pellet was re-suspended in 25 ml water and lysed on ice for 30 minutes. The homogenate was then re-centrifuged and the membrane lysis was repeated. The membranes were centrifuged and the final membrane pellets were resuspended in 14 volumes of water to yield approximately 200 μg protein/100 μl final concentration. The suspension was stored frozen at −80° C. prior to use. Protein concentrations were determined using the Coomassie Plus Protein Assay (available from Pierce of Rockford, Ill.).
GTPγS causes dissociation of G-protein from receptors. Data are shown as percent of [^3H]-N^α-methylhistamine bound (mean) for each table.

A word on the Ki: it is a measure of affinity in units of concentration, obtained from inhibition or displacement. As for `Fc1ccc(C(OCCCc2c[nH]cn2)c2ccc(F)cc2)cc1` [Compound 8, 3-(1H-imidazol-4-yl)propyl-di(p-fluorophenyl)-methyl ether], the Ki on Histamine H3 receptor (setting [1]) came out at 7.8 nM; at Histamine H3 receptor (setting [2]) it was 18.2 nM. The “Ki Ratio (−/+)” value on Histamine H3 receptor came out at 2.3. Also, on H3 receptor, the “Ex Vivo Binding (drug dose required to obtain ½-maximal H3 receptor occupancy in the brain)” value (shortened to “Ex Vivo Binding”) is 5.6 ± 0.12 mg/kg.

With `O=C(CCCCC1CCCCC1)N1CCC(c2c[nH]cn2)CC1` [Compound 5, 4-(N-(5-cyclohexylpentan-1-one-1-yl)piperidin-4-yl)imidazole], the “Ex Vivo Binding” value on H3 receptor was 8.0 ± 1.3 mg/kg.

As to `CC(C)(C)CCC#C[C@@H]1C[C@H]1c1c[nH]cn1` [Compound 6, (1R,2R)-trans-4-(2-(5,5-dimethylhex-1-ynyl)cyclopropyl) imidazole], the Ki came to 0.24 nM on Histamine H3 receptor (setting [1]) and 0.41 nM on Histamine H3 receptor (setting [2]). Moreover, the “Ki Ratio (−/+)” value on Histamine H3 receptor is listed as 1.7. In addition, the “effect on food consumption by rats” value with Sprague-Dawley rats is “no measurable effect”. The “Ex Vivo Binding” value on H3 receptor worked out at 0.08 ± 0.03 mg/kg.

Turning to `CC(C)(C)CCOC(=O)N[C@@H]1C[C@H]1c1c[nH]cn1` [Compound 9, 4-((1R,2R)-trans-2-(O-(3,3-dimethyl-but-1-yl)carboxamido)cyclopropyl)imidazole], the Ki on Histamine H3 receptor (setting [1]) amounted to 4.5 nM; at Histamine H3 receptor (setting [2]), 7.3 nM. In addition, the “Ki Ratio (−/+)” value on Histamine H3 receptor is 1.6. Further, in the assay on Sprague-Dawley rats, the “effect on food consumption by rats” value is “no measurable effect”. Also, on H3 receptor, the “Ex Vivo Binding” value was 3.7 ± 0.4 mg/kg.

Turning to `O=C(N[C@@H]1C[C@H]1c1c[nH]cn1)OCc1c(Cl)cccc1Cl` [Compound 7, 4-((1R,2R)-trans-2-(O-(2,6-dichlorophenylmethyl)carboxamido)cyclopropyl)imidazole], the Ki on Histamine H3 receptor (setting [1]) worked out at 2.3 nM; on Histamine H3 receptor (setting [2]), 3.4 nM. Also, at Histamine H3 receptor, the “Ki Ratio (−/+)” value was 1.5. In addition, the “effect on food consumption by rats” value with Sprague-Dawley rats is “no measurable effect”. Besides, on H3 receptor, the “Ex Vivo Binding” value came to 2.9 ± 1.3 mg/kg.

As to `C(=C/CCC1CCCCC1)/CCc1c[nH]cn1` [Compound 2, (3Z)-4-(6-cyclohexylhex-3-en-1-yl)imidazole], the remaining activity at 30 pM was 98.3% at Histamine H3 receptor (setting [3]) and 98.5% on Histamine H3 receptor (setting [4]). In addition, the remaining activity at 0.0001 µM at Histamine H3 receptor (setting [3]) was found to be 107%; on Histamine H3 receptor (setting [4]), 96.7%. The remaining activity at 0.0003 µM at Histamine H3 receptor (0.3 nM of compound, Tris-GTPγS, read-out: percent of [3H]-Nα-methylhistamine bound (mean)) was found to be 103%; at Histamine H3 receptor (0.3 nM of compound, Tris, read-out: percent of [3H]-Nα-methylhistamine bound (mean)), 96.7%. For the same molecule, the remaining activity at 0.001 µM is 91.1% on Histamine H3 receptor (1 nM of compound, Tris-GTPγS, read-out: percent of [3H]-Nα-methylhistamine bound (mean)) and 99.2% at Histamine H3 receptor (1 nM of compound, Tris, read-out: percent of [3H]-Nα-methylhistamine bound (mean)). Further, the remaining activity at 0.003 µM at Histamine H3 receptor (3 nM of compound, Tris-GTPγS, read-out: percent of [3H]-Nα-methylhistamine bound (mean)) stood at 77.4%; on Histamine H3 receptor (3 nM of compound, Tris, read-out: percent of [3H]-Nα-methylhistamine bound (mean)) it was 88.7%. The remaining activity at 0.01 µM on Histamine H3 receptor (10 nM of compound, Tris-GTPγS, read-out: percent of [3H]-Nα-methylhistamine bound (mean)) is 54.8%; at Histamine H3 receptor (10 nM of compound, Tris, read-out: percent of [3H]-Nα-methylhistamine bound (mean)), 60.1%. The remaining activity at 0.03 µM was 26.2% at Histamine H3 receptor (30 nM of compound, Tris-GTPγS, read-out: percent of [3H]-Nα-methylhistamine bound (mean)) and 32.6% at Histamine H3 receptor (30 nM of compound, Tris, read-out: percent of [3H]-Nα-methylhistamine bound (mean)). For the same molecule, the remaining activity at 0.1 µM at Histamine H3 receptor (100 nM of compound, Tris-GTPγS, read-out: percent of [3H]-Nα-methylhistamine bound (mean)) worked out at 10.7%; on Histamine H3 receptor (100 nM of compound, Tris, read-out: percent of [3H]-Nα-methylhistamine bound (mean)) it was 13.5%. The remaining activity at 0.3 µM on Histamine H3 receptor (setting [3]) was 4.4%; at Histamine H3 receptor (setting [4]), 4.5%. The remaining activity at 1 µM on Histamine H3 receptor (1000 nM of compound, Tris-GTPγS, read-out: percent of [3H]-Nα-methylhistamine bound (mean)) stood at 3.4%; at Histamine H3 receptor (1000 nM of compound, Tris, read-out: percent of [3H]-Nα-methylhistamine bound (mean)), 0.4%. For the same molecule, the Ki at Histamine H3 receptor (setting [1]) is 3.6 nM; on Histamine H3 receptor (setting [2]), 4.6 nM. On Histamine H3 receptor, the “Ki Ratio (−/+)” value was found to be 1.3. Also, at Histamine H3 receptor, the “binding to GTPγS-treated cortical membrane preparation compared with non-treated preparation” value is on record as “relatively little difference in binding”. Besides, the “effect on food consumption by rats” value in the assay with Sprague-Dawley rats was “no measurable effect”. Besides, at H3 receptor, the “Ex Vivo Binding” value worked out at 0.92 ± 0.01 mg/kg.

For `N[C@H](/C=C\CCc1c[nH]cn1)CC1CCCCC1` [Compound 4, 4-(((5S)(3Z)-5-amino-6-cyclohexyl)hex-3-en-1-yl)imidazole], the Ki at Histamine H3 receptor (setting [1]) was found to be 1.9 nM; at Histamine H3 receptor (setting [2]) it was 11.3 nM. Besides, the “Ki Ratio (−/+)” value at Histamine H3 receptor is reported as 6.0. For the same molecule, on H3 receptor, the “Ex Vivo Binding” value is recorded as “˜15 mg/kg”.

Consider `O=C(N[C@@H]1C[C@H]1c1c[nH]cn1)OCCC1CCCCC1` [Compound 1, 4-((1R,2R)-trans-2-(O-(2-cyclohexylethyl)carboxamido)cyclopropyl)imidazole], for which the Ki on Histamine H3 receptor (setting [1]) was determined as 7.2 nM; on Histamine H3 receptor (setting [2]), 29.3 nM. In addition, the “Ki Ratio (−/+)” value at Histamine H3 receptor was 4.1. In addition, the remaining activity at 0.0003 µM at Histamine H3 receptor (read-out: percent of [3H]-Nα-methylhistamine bound (mean), 0.3 nM of compound, Tris) was 108%; on Histamine H3 receptor (read-out: percent of [3H]-Nα-methylhistamine bound (mean), 0.3 nM of compound, Tris-GTPγS), 103%. Also, the remaining activity at 0.001 µM at Histamine H3 receptor (read-out: percent of [3H]-Nα-methylhistamine bound (mean), 1 nM of compound, Tris) came out at 95.7%; at Histamine H3 receptor (read-out: percent of [3H]-Nα-methylhistamine bound (mean), 1 nM of compound, Tris-GTPγS), 98.3%. Besides, the remaining activity at 0.003 µM came to 102% on Histamine H3 receptor (read-out: percent of [3H]-Nα-methylhistamine bound (mean), 3 nM of compound, Tris) and 93.3% at Histamine H3 receptor (read-out: percent of [3H]-Nα-methylhistamine bound (mean), 3 nM of compound, Tris-GTPγS). The remaining activity at 0.01 µM was 102% on Histamine H3 receptor (read-out: percent of [3H]-Nα-methylhistamine bound (mean), 10 nM of compound, Tris) and 76.4% at Histamine H3 receptor (read-out: percent of [3H]-Nα-methylhistamine bound (mean), 10 nM of compound, Tris-GTPγS). Further, the remaining activity at 0.03 µM on Histamine H3 receptor (read-out: percent of [3H]-Nα-methylhistamine bound (mean), 30 nM of compound, Tris) amounted to 88.4%; on Histamine H3 receptor (read-out: percent of [3H]-Nα-methylhistamine bound (mean), 30 nM of compound, Tris-GTPγS), 42.6%. For the same molecule, the remaining activity at 0.1 µM at Histamine H3 receptor (read-out: percent of [3H]-Nα-methylhistamine bound (mean), 100 nM of compound, Tris) came to 67.9%; at Histamine H3 receptor (read-out: percent of [3H]-Nα-methylhistamine bound (mean), 100 nM of compound, Tris-GTPγS) it was 23.8%. The remaining activity at 1 µM at Histamine H3 receptor (read-out: percent of [3H]-Nα-methylhistamine bound (mean), 1000 nM of compound, Tris) stood at 12.6%; on Histamine H3 receptor (read-out: percent of [3H]-Nα-methylhistamine bound (mean), 1000 nM of compound, Tris-GTPγS) it was 4%. Further, the figures for the remaining activity at 10 µM at Histamine H3 receptor (Tris) and at Histamine H3 receptor (Tris-GTPγS) were -1.6% and 1.3%, respectively. Besides, the “binding to GTPγS-treated cortical membrane preparation compared with non-treated preparation” value at Histamine H3 receptor is “higher apparent affinity”. On H3 receptor, the “Ex Vivo Binding” value came to 3.1 ± 1.3 mg/kg.
